#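 A five-concentration, 48-hour dose response in 96-well plates underlies each endpoint, interpolated linearly between surrounding concentrations. TGI denotes the concentration required for complete inhibition of growth.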
# Assays:
# Assay in all cases: NCI tumour cell line growth inhibition, 48 h
# 786-0 renal = system: 786-0 renal
# A498 renal = system: A498 renal
# A549 NSCLC = system: A549 NSCLC
# ACHN renal = system: ACHN renal
# BT-549 breast = system: BT-549 breast
# CAKI-1 renal = system: CAKI-1 renal
# CCRF-CEM leukemia = system: CCRF-CEM leukemia
# COLO 205 colon = system: COLO 205 colon
# DU-145 prostate = system: DU-145 prostate
# EKVX NSCLC = system: EKVX NSCLC
# HCC-2998 colon = system: HCC-2998 colon
# HCT-116 colon = system: HCT-116 colon
# HCT-15 colon = system: HCT-15 colon
# HL-60(TB) leukemia = system: HL-60(TB) leukemia
# HOP-62 NSCLC = system: HOP-62 NSCLC
# HOP-92 NSCLC = system: HOP-92 NSCLC
# HS 578T breast = system: HS 578T breast
# HT29 colon = system: HT29 colon
# IGROV1 ovarian = system: IGROV1 ovarian
# K-562 leukemia = system: K-562 leukemia
# KM12 colon = system: KM12 colon
# LOX IMVI melanoma = system: LOX IMVI melanoma
# M14 melanoma = system: M14 melanoma
# MALME-3M melanoma = system: MALME-3M melanoma
# MCF7 breast = system: MCF7 breast
# MDA-MB-231 breast = system: MDA-MB-231 breast
# MDA-MB-435 = system: MDA-MB-435
# MDA-N = system: MDA-N
# MOLT-4 leukemia = system: MOLT-4 leukemia
# NCI-H226 lung = system: NCI-H226 lung
# NCI-H23 lung = system: NCI-H23 lung
# NCI-H460 lung = system: NCI-H460 lung
# NCI-H522 lung = system: NCI-H522 lung
# NCI/ADR-RES ovarian = system: NCI/ADR-RES ovarian
# OVCAR-3 ovarian = system: OVCAR-3 ovarian
# OVCAR-4 ovarian = system: OVCAR-4 ovarian
# OVCAR-5 ovarian = system: OVCAR-5 ovarian
# OVCAR-8 ovarian = system: OVCAR-8 ovarian
# PC-3 prostate = system: PC-3 prostate
# RPMI-8226 leukemia = system: RPMI-8226 leukemia
# RXF 393 renal = system: RXF 393 renal
# SF-268 CNS = system: SF-268 CNS
# SF-295 CNS = system: SF-295 CNS
# SF-539 CNS = system: SF-539 CNS
# SK-MEL-2 melanoma = system: SK-MEL-2 melanoma
# SK-MEL-28 melanoma = system: SK-MEL-28 melanoma
# SK-MEL-5 melanoma = system: SK-MEL-5 melanoma
# SK-OV-3 ovarian = system: SK-OV-3 ovarian
# SN12C renal = system: SN12C renal
# SNB-19 CNS = system: SNB-19 CNS
# SNB-75 CNS = system: SNB-75 CNS
# SW-620 colon = system: SW-620 colon
# T-47D breast = system: T-47D breast
# TK-10 renal = system: TK-10 renal
# U251 CNS = system: U251 CNS
# UACC-257 melanoma = system: UACC-257 melanoma
# UACC-62 melanoma = system: UACC-62 melanoma
# UO-31 renal = system: UO-31 renal
# SR leukemia = system: SR leukemia
compound,measurement,setting,value
CCC1=CC2Cc3nc4cc(Cl)ccc4c(N)c3C(C1)C2 (stereo not given),TGI,786-0 renal,11.9 µM
same,TGI,A498 renal,17.3 µM
same,TGI,A549 NSCLC,30.8 µM
same,TGI,ACHN renal,26.7 µM
same,TGI,BT-549 breast,35.4 µM
same,TGI,CAKI-1 renal,8.38 µM
same,TGI,CCRF-CEM leukemia,15.9 µM
same,TGI,COLO 205 colon,7.11 µM
same,TGI,DU-145 prostate,28.9 µM
same,TGI,EKVX NSCLC,11.6 µM
same,TGI,HCC-2998 colon,3.69 µM
same,TGI,HCT-116 colon,9.77 µM
same,TGI,HCT-15 colon,> 37.7 µM
same,TGI,HL-60(TB) leukemia,7.42 µM
same,TGI,HOP-62 NSCLC,22.5 µM
same,TGI,HOP-92 NSCLC,6.48 µM
same,TGI,HS 578T breast,13.1 µM
same,TGI,HT29 colon,10.8 µM
same,TGI,IGROV1 ovarian,20.7 µM
same,TGI,K-562 leukemia,7.57 µM
same,TGI,KM12 colon,19.5 µM
same,TGI,LOX IMVI melanoma,19.2 µM
same,TGI,M14 melanoma,3.16 µM
same,TGI,MALME-3M melanoma,9.46 µM
same,TGI,MCF7 breast,17.6 µM
same,TGI,MDA-MB-231 breast,18.9 µM
same,TGI,MDA-MB-435,8.74 µM
same,TGI,MDA-N,18 µM
same,TGI,MOLT-4 leukemia,3.28 µM
same,TGI,NCI-H226 lung,5.73 µM
same,TGI,NCI-H23 lung,17.3 µM
same,TGI,NCI-H460 lung,18.5 µM
same,TGI,NCI-H522 lung,16.1 µM
same,TGI,NCI/ADR-RES ovarian,27.6 µM
same,TGI,OVCAR-3 ovarian,21.9 µM
same,TGI,OVCAR-4 ovarian,17.2 µM
same,TGI,OVCAR-5 ovarian,15.4 µM
same,TGI,OVCAR-8 ovarian,> 49.9 µM
same,TGI,PC-3 prostate,18.4 µM
same,TGI,RPMI-8226 leukemia,5.79 µM
same,TGI,RXF 393 renal,8.15 µM
same,TGI,SF-268 CNS,16.9 µM
same,TGI,SF-295 CNS,12.2 µM
same,TGI,SF-539 CNS,28.8 µM
same,TGI,SK-MEL-2 melanoma,21.2 µM
same,TGI,SK-MEL-28 melanoma,7.5 µM
same,TGI,SK-MEL-5 melanoma,4.05 µM
same,TGI,SK-OV-3 ovarian,25.9 µM
same,TGI,SN12C renal,28.2 µM
same,TGI,SNB-19 CNS,22.7 µM
same,TGI,SNB-75 CNS,18.5 µM
same,TGI,SW-620 colon,36 µM
same,TGI,T-47D breast,7.3 µM
same,TGI,TK-10 renal,13.6 µM
same,TGI,U251 CNS,25.3 µM
same,TGI,UACC-257 melanoma,4.72 µM
same,TGI,UACC-62 melanoma,18.4 µM
same,TGI,UO-31 renal,20.6 µM
COc1ccc2c(c1)N=C1CSC(c3cccc(Br)c3)N1C2 (stereo not given),TGI,786-0 renal,35.1 µM
same,TGI,A549 NSCLC,48.1 µM
same,TGI,ACHN renal,31 µM
same,TGI,BT-549 breast,32.4 µM
same,TGI,CAKI-1 renal,59.3 µM
same,TGI,COLO 205 colon,68.7 µM
same,TGI,EKVX NSCLC,33.8 µM
same,TGI,HCC-2998 colon,19.7 µM
same,TGI,HCT-116 colon,28.6 µM
same,TGI,HCT-15 colon,35.5 µM
same,TGI,HL-60(TB) leukemia,29.6 µM
same,TGI,HOP-62 NSCLC,56.2 µM
same,TGI,HOP-92 NSCLC,53.2 µM
same,TGI,HS 578T breast,96.7 µM
same,TGI,HT29 colon,31.9 µM
same,TGI,IGROV1 ovarian,80.7 µM
same,TGI,K-562 leukemia,67.1 µM
same,TGI,KM12 colon,36 µM
same,TGI,LOX IMVI melanoma,50 µM
same,TGI,M14 melanoma,36.2 µM
same,TGI,MALME-3M melanoma,43.1 µM
same,TGI,MCF7 breast,25.2 µM
same,TGI,MDA-MB-231 breast,50.6 µM
same,TGI,MDA-MB-435,34.5 µM
same,TGI,MDA-N,34.5 µM
same,TGI,MOLT-4 leukemia,31 µM
same,TGI,NCI-H226 lung,43.5 µM
same,TGI,NCI-H23 lung,45.3 µM
same,TGI,NCI-H460 lung,23.7 µM
same,TGI,NCI-H522 lung,39.1 µM
same,TGI,NCI/ADR-RES ovarian,58 µM
same,TGI,OVCAR-4 ovarian,40.4 µM
same,TGI,OVCAR-5 ovarian,56.8 µM
same,TGI,OVCAR-8 ovarian,> 100 µM
same,TGI,PC-3 prostate,38.4 µM
same,TGI,RPMI-8226 leukemia,29.7 µM
same,TGI,RXF 393 renal,29.7 µM
same,TGI,SF-268 CNS,> 100 µM
same,TGI,SF-295 CNS,40.8 µM
same,TGI,SF-539 CNS,41.4 µM
same,TGI,SK-MEL-2 melanoma,36.3 µM
same,TGI,SK-MEL-28 melanoma,> 100 µM
same,TGI,SK-MEL-5 melanoma,27.6 µM
same,TGI,SK-OV-3 ovarian,48 µM
same,TGI,SN12C renal,39.7 µM
same,TGI,SNB-19 CNS,78.8 µM
same,TGI,SNB-75 CNS,38.5 µM
same,TGI,SR leukemia,23.1 µM
same,TGI,SW-620 colon,> 100 µM
same,TGI,T-47D breast,> 100 µM
same,TGI,TK-10 renal,41 µM
same,TGI,U251 CNS,44.3 µM
same,TGI,UACC-257 melanoma,24.3 µM
same,TGI,UACC-62 melanoma,31.8 µM
same,TGI,UO-31 renal,30.7 µM
O=C(O)c1ccc2c(c1)CC1(C2)Cc2ccccc2C1=O (stereo not given),TGI,786-0 renal,> 100 µM
same,TGI,A549 NSCLC,> 100 µM
same,TGI,ACHN renal,> 100 µM
same,TGI,BT-549 breast,> 100 µM
same,TGI,CCRF-CEM leukemia,> 100 µM
same,TGI,COLO 205 colon,> 100 µM
same,TGI,DU-145 prostate,> 100 µM
same,TGI,EKVX NSCLC,> 100 µM
same,TGI,HCC-2998 colon,> 100 µM
same,TGI,HCT-116 colon,> 100 µM
same,TGI,HCT-15 colon,> 100 µM
same,TGI,HL-60(TB) leukemia,> 100 µM
same,TGI,HOP-62 NSCLC,> 100 µM
same,TGI,HOP-92 NSCLC,> 100 µM
same,TGI,HS 578T breast,> 100 µM
same,TGI,HT29 colon,> 100 µM
same,TGI,IGROV1 ovarian,> 100 µM
same,TGI,K-562 leukemia,> 100 µM
same,TGI,KM12 colon,> 100 µM
same,TGI,LOX IMVI melanoma,> 100 µM
same,TGI,M14 melanoma,> 100 µM
same,TGI,MALME-3M melanoma,> 100 µM
same,TGI,MCF7 breast,> 100 µM
same,TGI,MDA-MB-231 breast,> 100 µM
same,TGI,MDA-MB-435,> 100 µM
same,TGI,MDA-N,> 100 µM
same,TGI,MOLT-4 leukemia,> 100 µM
same,TGI,NCI-H226 lung,> 100 µM
same,TGI,NCI-H23 lung,> 100 µM
same,TGI,NCI-H460 lung,> 100 µM
same,TGI,NCI-H522 lung,> 100 µM
same,TGI,NCI/ADR-RES ovarian,> 100 µM
same,TGI,OVCAR-3 ovarian,> 100 µM
same,TGI,OVCAR-4 ovarian,> 100 µM
same,TGI,OVCAR-5 ovarian,> 100 µM
same,TGI,OVCAR-8 ovarian,> 100 µM
same,TGI,PC-3 prostate,> 100 µM
same,TGI,RPMI-8226 leukemia,> 100 µM
same,TGI,RXF 393 renal,> 100 µM
same,TGI,SF-268 CNS,> 100 µM
same,TGI,SF-295 CNS,> 100 µM
same,TGI,SF-539 CNS,> 100 µM
same,TGI,SK-MEL-2 melanoma,> 100 µM
same,TGI,SK-MEL-28 melanoma,> 100 µM
same,TGI,SK-MEL-5 melanoma,> 100 µM
same,TGI,SK-OV-3 ovarian,> 100 µM
same,TGI,SN12C renal,> 100 µM
same,TGI,SNB-19 CNS,> 100 µM
same,TGI,SNB-75 CNS,> 100 µM
same,TGI,SR leukemia,> 100 µM
same,TGI,SW-620 colon,> 100 µM
same,TGI,T-47D breast,> 100 µM
same,TGI,TK-10 renal,> 100 µM
same,TGI,U251 CNS,> 100 µM
same,TGI,UACC-257 melanoma,> 100 µM
same,TGI,UACC-62 melanoma,> 100 µM
same,TGI,UO-31 renal,> 100 µM

# From PubChem BioAssay (NCI)
